The values that follow come from US8834862B2, “Methods, compositions and devices utilizing stinging cells/capsules for conditioning a tissue prior to delivery of an active agent” (NanoCyte Inc., priority 2005, dated 2014).

The assay has as its system blood glucose. The assay is described as follows: Insulin delivery by aiptasia stinging capsule gel, blood glucose in nude mice. Conditions: topical aiptasia stinging capsule gel plus Humolin, blood glucose at 0, 30, 60 and 90 minutes after gel activation, FIG. 3. Format: in vivo. As for the experimental part: The potential of the stinging capsule patch to deliver an agent (insulin) into the blood stream was tested with aiptasia capsules.
Materials—Commercial Insulin—Humolin of EliLilly was tested. Unless otherwise noted, all chemicals were purchased from Sigma (Aldrich).
Animals—6-9 week old nude mice each weighing 20-30 gr were used.
Insulin Delivery—Mice were topically applied with the aiptasia stinging capsule gel and Humolin. A few microlitres of blood were drawn from the tail tip prior to insulin application (time 0) and thirty minutes, sixty minutes and ninety minutes following gel activation. Blood glucose concentration was measured using a human glucometer.
In parallel, and as a positive control, mice were subcutaneously injected with Humolin.

As to insulin, the “insulin delivery / blood glucose regulation compared with subcutaneous injection” value is “in a similar manner as subcutaneous injection”.
